From patent US9518026B2, “5-aminopyrazole-4-carboxamide inhibitors of CDPK1 from T. gondii and C. parvum” (UNIVERSITY OF WASHINGTON THROUGH ITS CENTER FOR …, priority 2013, dated 2016)
Where two headings read alike, the source gives them in different places.

How the values were obtained:
CpCDPK1 = CpCDPK1 (Cryptosporidium parvum (strain Iowa II), UniProt A3FQ16); experiment: biochemical; settings: Table 1; KinaseGlo, Syntide 2 peptide substrate; read-out: CpCDPK1 IC50
[1] = Cytotoxicity against CRL8155 cell line; assay type: cell-based; settings: human, CRL8155 cells (lymphoblast, spleen), read-out: Cytotoxicity (CRL8155) EC50
Src = Src (Homo sapiens (Human), UniProt P12931); experiment: biochemical
T. gondii = experiment: Inhibition of T. gondii cell proliferation; assay type: cell-based; settings: Toxoplasma gondii; Table 3; read-out: T. gondii EC50
TgCDPK1 = TgCDPK1 (Toxoplasma gondii, UniProt Q9BJF5); experiment: biochemical; settings: read-out: TgCDPK1 IC50
[2] = Table 1, KinaseGlo, Syntide 2 peptide substrate

CpCDPK1, sequence (A3FQ16 1-538): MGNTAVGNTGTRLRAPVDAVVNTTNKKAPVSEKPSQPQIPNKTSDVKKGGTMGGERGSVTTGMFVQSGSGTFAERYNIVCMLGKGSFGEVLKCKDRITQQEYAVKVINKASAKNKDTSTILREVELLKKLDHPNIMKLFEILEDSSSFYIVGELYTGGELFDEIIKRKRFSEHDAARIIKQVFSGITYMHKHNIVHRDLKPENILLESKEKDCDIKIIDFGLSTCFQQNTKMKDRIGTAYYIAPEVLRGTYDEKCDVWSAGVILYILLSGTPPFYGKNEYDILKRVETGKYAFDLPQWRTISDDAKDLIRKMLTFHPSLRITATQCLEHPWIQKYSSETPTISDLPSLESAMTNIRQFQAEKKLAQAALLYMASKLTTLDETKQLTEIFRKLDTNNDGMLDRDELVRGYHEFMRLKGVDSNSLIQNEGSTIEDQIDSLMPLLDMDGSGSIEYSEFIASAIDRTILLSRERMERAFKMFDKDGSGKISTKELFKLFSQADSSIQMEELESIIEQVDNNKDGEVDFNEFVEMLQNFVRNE
Src, sequence (P12931 270-523): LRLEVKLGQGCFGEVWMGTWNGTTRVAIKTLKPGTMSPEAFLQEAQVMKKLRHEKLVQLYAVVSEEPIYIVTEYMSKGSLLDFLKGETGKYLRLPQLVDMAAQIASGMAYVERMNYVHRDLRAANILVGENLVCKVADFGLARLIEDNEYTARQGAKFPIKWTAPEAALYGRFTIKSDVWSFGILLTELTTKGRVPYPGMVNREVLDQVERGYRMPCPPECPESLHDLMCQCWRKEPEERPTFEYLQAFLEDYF
TgCDPK1, sequence (Q9BJF5 1-507): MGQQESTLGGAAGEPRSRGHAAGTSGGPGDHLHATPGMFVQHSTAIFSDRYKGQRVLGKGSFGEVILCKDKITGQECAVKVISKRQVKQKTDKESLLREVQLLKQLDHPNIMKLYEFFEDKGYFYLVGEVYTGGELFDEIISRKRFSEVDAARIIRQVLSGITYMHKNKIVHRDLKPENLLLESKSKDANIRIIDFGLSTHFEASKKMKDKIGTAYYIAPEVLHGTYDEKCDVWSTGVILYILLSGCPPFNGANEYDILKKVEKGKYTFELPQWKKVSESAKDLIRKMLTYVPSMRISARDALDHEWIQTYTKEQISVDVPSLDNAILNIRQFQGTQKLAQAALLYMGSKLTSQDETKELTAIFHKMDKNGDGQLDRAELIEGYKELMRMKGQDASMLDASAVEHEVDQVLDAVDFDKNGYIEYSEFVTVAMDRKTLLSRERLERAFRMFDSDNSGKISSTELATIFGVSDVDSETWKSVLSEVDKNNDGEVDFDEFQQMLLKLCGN

SMILES	IC50 (CpCDPK1) [nM]	EC50 ([1]; Table 3) [nM]	IC50 (Src; Src IC50 (μM), Table 3) [µM]	IC50 (TgCDPK1; [2]) [nM]	further results
CC(C)Oc1ccc2cc(-c3nn(C(C)(C)C)c(N)c3C(N)=O)cnc2c1 [Compound 1569, 5-amino-1-(tert-butyl)-3-(7-isopropoxyquinolin-3-yl)-1H-pyrazole-4-carboxamide]	5	> 40000			
CC(C)(CO)Cn1nc(-c2ccc3nc(OC4CCC4)ccc3c2)c(C(N)=O)c1N [Compound 1645, 5-amino-3-(2-cyclobutoxyquinolin-6-yl)-1-(3-hydroxy-2,2-dimethylpropyl)-1H-pyrazole-4-carboxamide]	5	> 40000	> 10		EC50 (T. gondii): 480 nM
CCOc1ccc2cc(-c3nn(C4CCCC4)c(N)c3C(N)=O)cnc2c1 [Compound 1605, 5-amino-1-cyclopentyl-3-(7-ethoxyquinolin-3-yl)-1H-pyrazole-4-carboxamide]	4	> 40000	> 10		
CCOc1ccc2cc(-c3nn(C4CCCCC4)c(N)c3C(N)=O)ccc2n1 [Compound 1633, 5-amino-1-cyclohexyl-3-(2-ethoxyquinolin-6-yl)-1H-pyrazole-4-carboxamide]	2	> 40000	> 10	4	
CCOc1ccc2cc(-c3nn(CC(C)(C)CO)c(N)c3C(N)=O)ccc2n1 [Compound 1622, 5-amino-3-(2-ethoxyquinolin-6-yl)-1-(3-hydroxy-2,2-dimethylpropyl)-1H-pyrazole-4-carboxamide]		> 40000			
CC(C)(C)Cn1nc(-c2ccc3ccccc3c2)c(C(N)=O)c1N [Compound 19, 5-amino-3-(naphthalen-2-yl)-1-neopentyl-1H-pyrazole-4-carboxamide]					EC50 ([1]; Table 2): > 40000 nM
CCOc1ccc2cc(-c3nn(C4CCCCCC4)c(N)c3C(N)=O)cnc2c1 [Compound 1604, 5-amino-1-cycloheptyl-3-(7-ethoxyquinolin-3-yl)-1H-pyrazole-4-carboxamide]	2	> 40000	> 10		
CC(C)(C)n1nc(-c2cnc3cc(F)ccc3c2)c(C(N)=O)c1N [Compound 1545, 5-amino-1-tert-butyl-3-(7-fluoroquinolin-3-yl)-1H-pyrazole-4-carboxamide]		> 40000	> 30		
CCOc1ccc2cc(-c3nn(CC4CC4)c(N)c3C(N)=O)cnc2c1 [Compound 1598, 5-amino-1-(cyclopropylmethyl)-3-(7-ethoxyquinolin-3-yl)-1H-pyrazole-4-carboxamide]	5	> 40000	> 10	12	
CCOc1ccc2cc(-c3nn(C(C)(C)C)c(N)c3C(N)=O)ccc2n1 [Compound 1597, 5-amino-1-(tert-butyl)-3-(2-ethoxyquinolin-6-yl)-1H-pyrazole-4-carboxamide]	3	> 40000	> 10		
CC(C)(C)n1nc(-c2ccc3nc(OC4CC4)ccc3c2)c(C(N)=O)c1N [Compound 1643, 5-amino-1-(tert-butyl)-3-(2-cyclopropoxyquinolin-6-yl)-1H-pyrazole-4-carboxamide]	3	> 40000	> 10	5.7	
CC(C)(C)n1nc(-c2cnc3ccccc3c2)c(C(N)=O)c1N [Compound 38, 5-amino-1-(tert-butyl)-3-(quinolin-3-yl)-1H-pyrazole-4-carboxamide]	7				IC50 (Src; Src IC50 (μM), Table 2): > 10 µM; IC50 (TgCDPK1): 6 nM; EC50 ([1]; Table 2): > 40000 nM
CCOc1ccc2cc(-c3nn(C4CCC4)c(N)c3C(N)=O)cnc2c1 [Compound 1652]		> 40000			IC50 (Src): > 10 µM
CCOc1ccc2cc(-c3nn(CC4CC4)c(N)c3C(N)=O)ccc2n1 [Compound 1635, 5-amino-1-(cyclopropylmethyl)-3-(2-ethoxyquinolin-6-yl)-1H-pyrazole-4-carboxamide]	3	> 40000	> 10	6	
CN1CCC(Cn2nc(-c3ccc4ccccc4c3)c(C(N)=O)c2N)CC1 [Compound 21, 5-amino-1-((1-methylpiperidin-4-yl)methyl)-3-(naphthalen-2-yl)-1H-pyrazole-4-carboxamide]	17				IC50 (TgCDPK1): 39 nM
CCOc1ccc2cc(-c3nn4c(c3C(N)=O)NC(=O)C4)cnc2c1 [Compound 1609, 6-(7-ethoxyquinolin-3-yl)-2-oxo-2,3-dihydro-1H-imidazo[1,2-b]pyrazole-7-carboxamide]	577			1430	
CC(C)(C)n1nc(-c2ccc3ccccc3n2)c(C(N)=O)c1N [Compound 35, 5-amino-1-(tert-butyl)-3-(quinolin-2-yl)-1H-pyrazole-4-carboxamide]	290				IC50 (TgCDPK1): 49 nM
CCOc1ccc2cc(-c3nn(C(C)C(C)(C)O)c(N)c3C(N)=O)cnc2c1 (stereo not drawn) [Compound 1626, 5-amino-3-(7-ethoxyquinolin-3-yl)-1-(3-hydroxy-3-methylbutan-2-yl)-1H-pyrazole-4-carboxamide]	13			30	

SMILES	IC50 (CpCDPK1) [nM]	EC50 ([1]; Table 3) [nM]	IC50 (Src; Src IC50 (μM), Table 3) [µM]	IC50 (TgCDPK1; [2]) [nM]	further results
NC(=O)c1c(-c2ccc3ccccc3c2)nn(CCO)c1N [Compound 22, 5-amino-1-(2-hydroxyethyl)-3-(naphthalen-2-yl)-1H-pyrazole-4-carboxamide]	21				IC50 (TgCDPK1): 15 nM
CCOc1ccc2ncc(-c3nn(C4CCCCC4)c(N)c3C(N)=O)cc2c1 [Compound 1655, 5-amino-1-cyclohexyl-3-(6-ethoxyquinolin-3-yl)-1H-pyrazole-4-carboxamide]	> 2000			> 2000	
CCOc1ccc2cc(-c3nn(C(C)C)c(N)c3C(N)=O)ccc2n1 [Compound 1661, 5-amino-3-(2-ethoxyquinolin-6-yl)-1-isopropyl-1H-pyrazole-4-carboxamide]	2			5	
CCOc1ccc2cc(-c3nn(C4CCOC4)c(N)c3C(N)=O)cnc2c1 (stereo not drawn) [Compound 1612, 5-amino-3-(7-ethoxyquinolin-3-yl)-1-(tetrahydrofuran-3-yl)-1H-pyrazole-4-carboxamide]	3			10	
CCOc1ccc2cc(-c3nn(CCO)c(N)c3C(N)=O)cnc2c1 [Compound 1577, 5-amino-3-(7-ethoxyquinolin-3-yl)-1-(2-hydroxyethyl)-1H-pyrazole-4-carboxamide]	89			181	
CC(C)(C)n1nc(-c2ccc3ncccc3c2)c(C(N)=O)c1N [Compound 37, 5-amino-1-(tert-butyl)-3-(quinolin-6-yl)-1H-pyrazole-4-carboxamide]	70				IC50 (TgCDPK1): 10 nM
CN1CCC(n2nc(-c3ccc4ccccc4c3)c(C(N)=O)c2N)CC1 [Compound 20, 5-amino-1-(1-methylpiperidin-4-yl)-3-(naphthalen-2-yl)-1H-pyrazole-4-carboxamide]	13				IC50 (TgCDPK1): 26 nM
NC(=O)c1c(-c2ccc3ccccc3c2)nn(CCN2CCOCC2)c1N [Compound 23, 5-amino-1-(2-morpholinoethyl)-3-(naphthalen-2-yl)-1H-pyrazole-4-carboxamide]	18				IC50 (TgCDPK1): 5 nM
COc1ccc2cc(-c3n[nH]c(N)c3C(N)=O)ccc2c1 [Compound 11, 5-amino-3-(6-methoxynaphthalen-2-yl)-1H-pyrazole-4-carboxamide]	48				IC50 (TgCDPK1): 81 nM
CCOc1ccc2cc(-c3nn(C4CCCCCC4)c(N)c3C(N)=O)ccc2n1 [Compound 1632, 5-amino-1-cycloheptyl-3-(2-ethoxyquinolin-6-yl)-1H-pyrazole-4-carboxamide]	6			7	
Cc1nc2cc(-c3nn(C(C)(C)C)c(N)c3C(N)=O)ccc2n1C [Compound 32, 5-amino-1-(tert-butyl)-3-(1,2-dimethyl-1H-benzo[d]imidazol-5-yl)-1H-pyrazole-4-carboxamide]	> 3000			> 3000	
CCOc1ccc2cc(-c3nn(C(C)CO)c(N)c3C(N)=O)cnc2c1 (stereo not drawn) [Compound 1627, 5-amino-3-(7-ethoxyquinolin-3-yl)-1-(1-hydroxypropan-2-yl)-1H-pyrazole-4-carboxamide]	9			20	
CCOc1ccc2cc(-c3nn(C(C(C)C)C(C)C)c(N)c3C(N)=O)cnc2c1 [Compound 1607, 5-amino-1-(2,4-dimethylpentan-3-yl)-3-(7-ethoxyquinolin-3-yl)-1H-pyrazole-4-carboxamide]	20			99	
NC(=O)c1c(-c2ccc3ccccc3c2)nn(CC2CC2)c1N [Compound 15, 5-amino-1-(cyclopropylmethyl)-3-(naphthalen-2-yl)-1H-pyrazole-4-carboxamide]	10				IC50 (TgCDPK1): 7 nM
CC(C)(C)n1nc(-c2cnc3cc(OC4CCC4)ccc3c2)c(C(N)=O)c1N [Compound 1630, 5-amino-1-(tert-butyl)-3-(7-cyclobutoxyquinolin-3-yl)-1H-pyrazole-4-carboxamide]	4			3	
CCOc1ccc2cc(-c3nn(CC(C)(C)CO)c(N)c3C(N)=O)cnc2c1 [Compound 1596, 5-amino-3-(7-ethoxyquinolin-3-yl)-1-(3-hydroxy-2,2-dimethylpropyl)-1H-pyrazole-4-carboxamide]		> 40000	> 10		
CC(C)(C)n1nc(-c2ccc3nc(OC4CCC4)ccc3c2)c(C(N)=O)c1N [Compound 1639, 5-amino-1-(tert-butyl)-3-(2-cyclobutoxyquinolin-6-yl)-1H-pyrazole-4-carboxamide]	6	> 40000	> 10	5	
CCOc1ccc2cc(-c3nn(C(CO)CO)c(N)c3C(N)=O)cnc2c1 [Compound 1629, 5-amino-1-(1,3-dihydroxypropan-2-yl)-3-(7-ethoxyquinolin-3-yl)-1H-pyrazole-4-carboxamide]	52			120	
